Patent publication US20220362174A1, “Use of R-enantiomer Beta2-agonists for prevent and treatment of pulmonary inflammation and inflammatory remodeling for reduced adverse effects” (priority 2019, published 2022)

Columns and labels:
Format in all cases: cell-based
[1] = test system: LPS-induced macrophages RAW264.7 cells; test: Ratio of GSH/GSSG
Excerpt: The ratio of GSH to GSSG is a marker of oxidative stress.

[2] = test system: LPS-induced RAW264.7 cells; test: NO production (DAF-FM DA probe, Griess assay); conditions: treatment with ICI-118551 in (R)-salbutamol/LPS cells
Method: (§1) Macrophages were treated without or with (R)/(S)-salbutamol for 1 h prior to LPS stimulation and subsequently incubated for 12 h. […] The fluorescence of the oxidized product (2′,7′-dichlorofluorescein, DCF) was assessed using an LSM710 Laser Scanning Confocal Microscope (Carl Zeiss, Jena, Germany). The concentration of NO in the culture supernatant was measured by assaying the concentrations of nitrite (a stable NO breakdown product) using the Griess assay (Beyotime, Shanghai, China), according to the manufacturer's instructions. The intracellular NO level was detected using the NO-sensitive fluorescence probe DAF-FM DA (Sigma, St. Louis, Mo., USA) (24). Cells were labeled with DAF-FM DA (10 μM) at 37° C. for 30 min and were gently washed three times with PBS. Fluorescence was detected using a LSM710 Laser Scanning Confocal Microscope (Scale bars, 100 μm) (Carl Zeiss, Jena, Germany).
(§2) In addition, the concentration of NO in the culture supernatant was measured by assaying the concentrations of nitrite (a stable NO breakdown product) using the Griess assay. […] To investigate (R)-salbutamol role on the level of iNOS, the mRNA and protein levels of iNOS were determined.

[3] = test system: LPS-induced RAW264.7 cells; test: mRNA expression of TNF-α, IL-1β and MCP-1 by quantitative real-time PCR; conditions: ICI-118551-treated cells compared to the control group
Method: as §1
To examine the mRNA expression of TNF-α, IL-1β and MCP-1, quantitative real-time PCR was performed. Consistent with the cytokine expression study, the mRNA expression of TNF-α was increased by 2.26-fold in the LPS-induced group compared to the control group (FIG. 8D). The mRNA expression of IL-1β and MCP-1 increased by 12.74-fold (FIG. 8E) and 3.1-fold, respectively, in the LPS-induced group compared to the control group (FIG. 8F).

[4] = test system: LPS-induced RAW264.7 cells; test: Seahorse analysis of OCR and ECAR
Method: as §1
Macrophage activation elicited different metabolic profiles. LPS-induced macrophages adopted glycolytic metabolic profiles. This invention disclosed a β2 adrenergic receptor mediated Warburg metabolism (aerobic glycolysis) of in LPS treated macrophages. The OCR and ECAR were measured using an extracellular flux analyzer. […] ECAR is a measurement extracellular acidification rate, an indication of cellular glycolytic rate.

[5] = test system: iNOS; test: iNOS mRNA and protein levels
Method: as §2

[6] = test system: LPS-induced RAW264.7 cells; test: M1/M2 macrophage polarization by flow cytometry; conditions: pretreated with (R)-salbutamol following incubation with ICI-118551, LPS
Method: as §1
Macrophages M1 (F4/80+/CD11c+/CD206−) and M2 (F4/80+/CD11c−/CD206+) polarization were analyzed using flow cytometry.

Cc1ccc(OCC(O)C(C)NC(C)C)c2c1CCC2 (centres unmarked) [ICI-118551, reference compound]
effect of (R)-salbutamol on GSH/GSSG with ICI-118551 [1]: blocked | NO levels [2]: increased NO levels | mRNA expression of IL-1β, increase [3]: 12.41 fold | mRNA expression of MCP-1, increase [3]: 3.36 fold | mRNA expression of TNF-α, increase [3]: 2.28 fold | metabolism shift by (R)-salbutamol with ICI-118551 treatment [4]: blocked | effects of (R)-salbutamol on iNOS when adding ICI-118551 [5]: blocked | percentage of M1 macrophages [6]: 55.8%
